Reference: ChEMBL document CHEMBL3046007, “Isonicotinic acid hydrazide derivatives: synthesis, antimicrobial activity, and QSAR studies” (Med Chem Res, 2012)
≈ marks a conversion by molar mass, not a printed value.

test system: Aspergillus niger; assay: Antimicrobial activity against Aspergillus niger after 7 days by serial dilution method; assay type: functional; details: not given

SMILES | -logMIC
COc1cccc(OC)c1/C=N/N(C(=O)c1ccccc1)C(=O)c1ccncc1 | 2.49
Cc1ccc(/C=N/N(C(=O)c2ccccc2)C(=O)c2ccncc2)cc1 | 2.44
O=C(c1ccccc1)N(/N=C/c1ccccc1O)C(=O)c1ccncc1 | 2.44
O=C(NNC(=O)c1cc([N+](=O)[O-])ccc1Cl)c1ccncc1 | 2.41

test system: Candida albicans; assay: Antimicrobial activity against Candida albicans after 48 hr by serial dilution method; assay type: functional; details: not given

SMILES | -logMIC
COc1cccc(OC)c1/C=N/N(C(=O)c1ccccc1)C(=O)c1ccncc1 | 3.1
Cc1ccc(/C=N/N(C(=O)c2ccccc2)C(=O)c2ccncc2)cc1 | 2.74
O=C(c1ccccc1)N(/N=C/c1ccccc1O)C(=O)c1ccncc1 | 3.04
O=C(NNC(=O)c1cc([N+](=O)[O-])ccc1Cl)c1ccncc1 | 2.41

test system: Escherichia coli; assay: Antimicrobial activity against Escherichia coli after 24 hr by serial dilution method; assay type: functional; details: not given

SMILES | -logMIC
COc1cccc(OC)c1/C=N/N(C(=O)c1ccccc1)C(=O)c1ccncc1 | 2.49
Cc1ccc(/C=N/N(C(=O)c2ccccc2)C(=O)c2ccncc2)cc1 | 2.44
O=C(c1ccccc1)N(/N=C/c1ccccc1O)C(=O)c1ccncc1 | 2.44
O=C(NNC(=O)c1cc([N+](=O)[O-])ccc1Cl)c1ccncc1 | 2.11

test system: Staphylococcus aureus; assay: Antimicrobial activity against Staphylococcus aureus after 24 hr by serial dilution method; assay type: functional; details: not given

SMILES | -logMIC
COc1cccc(OC)c1/C=N/N(C(=O)c1ccccc1)C(=O)c1ccncc1 | 2.49
Cc1ccc(/C=N/N(C(=O)c2ccccc2)C(=O)c2ccncc2)cc1 | 2.44
O=C(c1ccccc1)N(/N=C/c1ccccc1O)C(=O)c1ccncc1 | 1.84
O=C(NNC(=O)c1cc([N+](=O)[O-])ccc1Cl)c1ccncc1 | 2.11

test system: Bacillus subtilis; assay: Antimicrobial activity against Bacillus subtilis after 24 hr by serial dilution method; assay type: functional; details: not given

SMILES | -logMIC
COc1cccc(OC)c1/C=N/N(C(=O)c1ccccc1)C(=O)c1ccncc1 | 2.49
Cc1ccc(/C=N/N(C(=O)c2ccccc2)C(=O)c2ccncc2)cc1 | 2.14
O=C(c1ccccc1)N(/N=C/c1ccccc1O)C(=O)c1ccncc1 | 2.44
O=C(NNC(=O)c1cc([N+](=O)[O-])ccc1Cl)c1ccncc1 | 2.11

test system: not listed separately; assay: Cytotoxicity against Chlorocebus aethiops (African green monkey) Vero cells assessed as alteration in cell morphology; assay type: cell-based; details: chlorocebus sabaeus

SMILES | MCC
COc1cccc(OC)c1/C=N/N(C(=O)c1ccccc1)C(=O)c1ccncc1 | 100 µg/mL
Cc1ccc(/C=N/N(C(=O)c2ccccc2)C(=O)c2ccncc2)cc1 | ≥ 20 µg/mL

test system: Punta Toro virus; assay: Antiviral activity against Punta Toro virus infected Vero cells assessed as inhibition of virus-induced cytopathicity; assay type: functional, organism-based; details: not given

SMILES | EC50
COc1cccc(OC)c1/C=N/N(C(=O)c1ccccc1)C(=O)c1ccncc1 | > 20 µg/mL
Cc1ccc(/C=N/N(C(=O)c2ccccc2)C(=O)c2ccncc2)cc1 | > 20 µg/mL

test system: Coxsackievirus B4; assay: Antiviral activity against Human coxsackievirus B4 infected Vero cells assessed as inhibition of virus-induced cytopathicity; assay type: functional, organism-based; details: Enterovirus B

SMILES | EC50
COc1cccc(OC)c1/C=N/N(C(=O)c1ccccc1)C(=O)c1ccncc1 | > 20 µg/mL
Cc1ccc(/C=N/N(C(=O)c2ccccc2)C(=O)c2ccncc2)cc1 | > 20 µg/mL

test system: Sindbis virus; assay: Antiviral activity against Sindbis virus infected Vero cells assessed as inhibition of virus-induced cytopathicity; assay type: functional, organism-based; details: not given

SMILES | EC50
COc1cccc(OC)c1/C=N/N(C(=O)c1ccccc1)C(=O)c1ccncc1 | > 20 µg/mL
Cc1ccc(/C=N/N(C(=O)c2ccccc2)C(=O)c2ccncc2)cc1 | > 20 µg/mL

test system: Mammalian orthoreovirus 1; assay: Antiviral activity against Mammalian orthoreovirus 1 infected Vero cells assessed as inhibition of virus-induced cytopathicity; assay type: functional, organism-based; details: Mammalian orthoreovirus 1, Vero

SMILES | EC50
COc1cccc(OC)c1/C=N/N(C(=O)c1ccccc1)C(=O)c1ccncc1 | > 20 µg/mL
Cc1ccc(/C=N/N(C(=O)c2ccccc2)C(=O)c2ccncc2)cc1 | > 20 µg/mL

test system: Human respirovirus 3; assay: Antiviral activity against Human parainfluenza virus 3 infected Vero cells assessed as inhibition of virus-induced cytopathicity; assay type: functional, organism-based; details: Human respirovirus 3, Vero

SMILES | EC50
COc1cccc(OC)c1/C=N/N(C(=O)c1ccccc1)C(=O)c1ccncc1 | > 20 µg/mL
Cc1ccc(/C=N/N(C(=O)c2ccccc2)C(=O)c2ccncc2)cc1 | > 20 µg/mL

test system: Respiratory syncytial virus; assay: Antiviral activity against Respiratory syncytial virus infected human HeLa cells assessed as inhibition of virus-induced cytopathicity; assay type: functional, organism-based; details: not given

SMILES | EC50
COc1cccc(OC)c1/C=N/N(C(=O)c1ccccc1)C(=O)c1ccncc1 | > 4 µg/mL
Cc1ccc(/C=N/N(C(=O)c2ccccc2)C(=O)c2ccncc2)cc1 | > 20 µg/mL

test system: Coxsackievirus B4; assay: Antiviral activity against Human coxsackievirus B4 infected human HeLa cells assessed as inhibition of virus-induced cytopathicity; assay type: functional, organism-based; details: Enterovirus B

SMILES | EC50
COc1cccc(OC)c1/C=N/N(C(=O)c1ccccc1)C(=O)c1ccncc1 | > 4 µg/mL
Cc1ccc(/C=N/N(C(=O)c2ccccc2)C(=O)c2ccncc2)cc1 | > 20 µg/mL

test system: Vesicular stomatitis virus; assay: Antiviral activity against Vesicular stomatitis virus infected human HeLa cells assessed as inhibition of virus-induced cytopathicity; assay type: functional, organism-based; details: not given

SMILES | EC50
COc1cccc(OC)c1/C=N/N(C(=O)c1ccccc1)C(=O)c1ccncc1 | > 4 µg/mL
Cc1ccc(/C=N/N(C(=O)c2ccccc2)C(=O)c2ccncc2)cc1 | > 20 µg/mL

test system: not listed separately; assay: Cytotoxicity against Homo sapiens (human) HeLa cells; assay type: cell-based; details: not given

SMILES | MCC
COc1cccc(OC)c1/C=N/N(C(=O)c1ccccc1)C(=O)c1ccncc1 | 20 µg/mL
Cc1ccc(/C=N/N(C(=O)c2ccccc2)C(=O)c2ccncc2)cc1 | 100 µg/mL

test system: not listed separately; assay: Cytotoxicity against Homo sapiens (human) HEL cells; assay type: cell-based; details: not given

SMILES | MCC
COc1cccc(OC)c1/C=N/N(C(=O)c1ccccc1)C(=O)c1ccncc1 | > 100 µg/mL
Cc1ccc(/C=N/N(C(=O)c2ccccc2)C(=O)c2ccncc2)cc1 | > 100 µg/mL

test system: Human alphaherpesvirus 1; assay: Antiviral activity against TK(-) aciclovir-resistant Human herpesvirus 1 strain KOS infected in human HEL cells assessed as inhibition of virus-induced cytopathicity; assay type: functional, organism-based; details: Human alphaherpesvirus 1, KOS

SMILES | EC50
COc1cccc(OC)c1/C=N/N(C(=O)c1ccccc1)C(=O)c1ccncc1 | > 100 µg/mL
Cc1ccc(/C=N/N(C(=O)c2ccccc2)C(=O)c2ccncc2)cc1 | > 100 µg/mL

test system: Vaccinia virus; assay: Antiviral activity against Vaccinia virus infected human HEL cells assessed as inhibition of virus-induced cytopathicity; assay type: functional, organism-based; details: Orthopoxvirus vaccinia

SMILES | EC50
COc1cccc(OC)c1/C=N/N(C(=O)c1ccccc1)C(=O)c1ccncc1 | > 100 µg/mL
Cc1ccc(/C=N/N(C(=O)c2ccccc2)C(=O)c2ccncc2)cc1 | > 100 µg/mL

test system: Human alphaherpesvirus 2; assay: Antiviral activity against Human herpesvirus 2 strain G infected human HEL cells assessed as inhibition of virus-induced cytopathicity; assay type: functional, organism-based; details: Human alphaherpesvirus 2, strain G

SMILES | EC50
COc1cccc(OC)c1/C=N/N(C(=O)c1ccccc1)C(=O)c1ccncc1 | > 100 µg/mL
Cc1ccc(/C=N/N(C(=O)c2ccccc2)C(=O)c2ccncc2)cc1 | > 100 µg/mL

test system: Human alphaherpesvirus 1; assay: Antiviral activity against Human herpesvirus 1 strain KOS infected in human HEL cells assessed as inhibition of virus-induced cytopathicity; assay type: functional, organism-based; details: Human alphaherpesvirus 1, KOS

SMILES | EC50
COc1cccc(OC)c1/C=N/N(C(=O)c1ccccc1)C(=O)c1ccncc1 | > 100 µg/mL
Cc1ccc(/C=N/N(C(=O)c2ccccc2)C(=O)c2ccncc2)cc1 | > 100 µg/mL

test system: not listed separately; assay: Cytotoxicity against Homo sapiens (human) MT4 cells; assay type: cell-based; details: not given

SMILES | CC50
COc1cccc(OC)c1/C=N/N(C(=O)c1ccccc1)C(=O)c1ccncc1 | 12 µg/mL (≈ 30.8 µM)
Cc1ccc(/C=N/N(C(=O)c2ccccc2)C(=O)c2ccncc2)cc1 | 42 µg/mL (≈ 122 µM)
O=C(NNC(=O)c1cc([N+](=O)[O-])ccc1Cl)c1ccncc1 | 116 µg/mL (≈ 361 µM)

test system: Human immunodeficiency virus 2; assay: Antiviral activity against Human immunodeficiency virus type 2 (ISOLATE ROD) infected human MT4 cells assessed as inhibition of virus-induced cytopathicity; assay type: functional, organism-based; details: Human immunodeficiency virus 2, ISOLATE ROD

SMILES | EC50
COc1cccc(OC)c1/C=N/N(C(=O)c1ccccc1)C(=O)c1ccncc1 | > 12 µg/mL
Cc1ccc(/C=N/N(C(=O)c2ccccc2)C(=O)c2ccncc2)cc1 | > 42 µg/mL
O=C(NNC(=O)c1cc([N+](=O)[O-])ccc1Cl)c1ccncc1 | > 116 µg/mL

test system: Human immunodeficiency virus 1; assay: Antiviral activity against Human immunodeficiency virus 1 IIIB infected human MT4 cells assessed as inhibition of virus-induced cytopathicity; assay type: functional, organism-based; details: not given

SMILES | EC50
COc1cccc(OC)c1/C=N/N(C(=O)c1ccccc1)C(=O)c1ccncc1 | > 12 µg/mL
Cc1ccc(/C=N/N(C(=O)c2ccccc2)C(=O)c2ccncc2)cc1 | > 42 µg/mL
O=C(NNC(=O)c1cc([N+](=O)[O-])ccc1Cl)c1ccncc1 | > 116 µg/mL
